In one data set the test system is human plasma proteins. In words: Human plasma protein binding assay (equilibrium dialysis). The class given is in vitro ADME. Particulars: 1 μM, 2 hours, 37° C. As to the method: Equilibrium dialysis (ED) technique was used to determine the approximate in vitro fractional binding of test compounds to plasma proteins. Dianorm Teflon dialysis cells (micro 0.2) were used. Each dialysis cell consists of a donor and an acceptor chamber, separated by an ultrathin semipermeable membrane with a 5 kDa molecular weight cut-off. Stock solutions for each test compound were prepared in DMSO at 1 mM and serially diluted to obtain a final test concentration of 1 μM. The subsequent dialysis solutions were prepared in plasma (supplemented with NaEDTA as anticoagulant), and aliquots of 200 μL test compound dialysis solution in plasma were dispensed into the donor (plasma) chambers. Aliquots of 200 μL dialysis buffer (100 mM potassium phosphate, pH 7.4) were dispensed into the buffer (acceptor) chamber. Incubation was carried out for 2 hours under rotation at 37° C. for establishing equilibrium.
At the end of the dialysis period, aliquots obtained from donor and acceptor chambers, respectively, were transferred into reaction tubes, spiked with Internal Standard solution and processed for HPLC-MS/MS analysis. Analyte concentrations were quantified in aliquots of samples by HPLC-MS/MS against external calibration curves.
Percent bound was calculated using the formula: % bound=(plasma concentration−buffer concentration/plasma concentration)×100
For orientation: Equilibrium dialysis compares concentrations on both sides of a semipermeable membrane.

For another data set, the target named is hERG channel (Homo sapiens (Human), UniProt Q12809). In words: hERG channel assay (whole-cell patch clamp). The class given is cell-based. The settings on record: HEK293 cells stably transfected with hERG cDNA. From the text: hERG Channel inhibition of compounds of the present invention was investigated as follows:
HEK (human embryonic kidney) 293 cells were stably transfected with hERG cDNA. Cells determined for use in patch clamp experiments were cultivated without antibiotic.
Cells were superfused with a bath solution containing (mM): NaCl (137), KCl (4.0), MgCl2 (1.0), CaCl2(1.8), Glucose (10), HEPES (10), pH 7.4 with NaOH. Patch pipettes were made from borosilicate glass tubing using a pipette and filled with pipette solution containing (mM): K-aspartate (130), MgCl2(5.0), EGTA (5.0), K2ATP (4.0), HEPES (10.0), pH 7.2 with KOH. Resistance of the microelectrodes was typically in the range between 2 MΩ and 5 MΩ.
Membrane currents were recorded using an EPC-10 patch clamp amplifier (HEKA Electronics, Lambrecht, FRG) and PatchMaster software (HEKA). hERG-mediated membrane currents were recorded at typically 28° C., using the whole-cell configuration of the patch-clamp technique. Transfected HEK293 cells were clamped at a holding potential of −60 mV and hERG-mediated inactivating tail currents were elicited using a pulse pattern with fixed amplitudes (activation/inactivation: 40 mV for 2000 ms; recovery: 120 mV for 2 ms; ramp to 40 mV in 2 ms; inactivating tail current: 40 mV for 50 ms) repeated at 15 s intervals. During each inter-pulse interval 4 pulses scaled down by a factor of 0.2 were recorded for a P/n leak subtraction procedure. Rs compensation was employed up to a level that safely allows recording devoid of ringing. The remaining uncompensated Rs was recorded as well as actual temperature and holding current.
The concentrations of the test item were applied sequentially on each of the different cells investigated. A steady state level of baseline current was measured for at least 5 sweeps prior to the application of the first test article concentration. The test item was dissolved in DMSO to yield a stock solution of 1000-fold the highest final concentration. This stock was diluted further in DMSO to stock solutions of 1000-fold the remaining final concentrations. Final dilutions in extracellular buffer were prepared freshly from these stocks by a 1:1000 dilution step each before starting the experiments.
Peak current amplitudes were measured 3 ms after the ramp to +40 mV. For baseline and each concentration, the peak currents of the three last sweeps before application of the next concentration were averaged. Residual currents (I/I0) were calculated for each cell as the fraction of actual average peak current and average baseline peak current. Current inhibition was expressed as […]. Current inhibition for all cells was reported as mean ±SD. If possible, from mean current inhibition data the IC50 was estimated based on the Hill equation using a least squares procedure.

Data set [1] concerns primary human hepatocytes. In words: In vitro metabolite profiling in primary human hepatocytes with or without proadifen. The settings on record: for % Parent of drug-related material: incubations in primary human hepatocytes, 1 μM test compound; for Contribution of amide hydrolysis to metabolism (incl. secondary metabolites): primary human hepatocytes, abundance of deacetylated metabolites relative to all metabolites. It counts as in vitro ADME. The method, then:
In vitro metabolite profiling to evaluate the involvement of non-CYP-enzyme-mediated metabolic pathways such as hydrolysis in addition to CYP-mediated pathways is based on the semiquantitative analysis of the formation of prototypic metabolites in incubations with liver microsomes (with and without beta-nicotinamide adenine dinucleotide phosphate, NADPH), primary human hepatocytes (with and without the pan-CYP inhibitor proadifen) and recombinant CYP enzymes.
An additional measure to identify CYP-independent metabolic pathways is the use of the pan-CYP inhibitor proadifen in incubations of the test compound with human hepatocytes. In presence of proadifen, the CYP-related pathways are inhibited and metabolites would primarily be generated via non-CYP pathways.
The involvement of non-CYP-enzymes in metabolic transformations of the test compound was further investigated using primary human hepatocytes in suspension in presence or absence of the pan-CYP inhibitor proadifen (50 μM final incubation concentration). After recovery from cryopreservation, human hepatocytes were incubated in Dulbecco's modified eagle medium supplemented with 3.5 μg glucagon/500 ml, 2.5 mg insulin/500 ml and 3.75 mg/500 ml hydrocortisone containing 5% (v/v) human serum.
Following a 30 min preincubation in a cell culture incubator (37° C., 10% CO2) with or without 50 μM proadifen, test compound solution was spiked into the hepatocyte suspension to obtain a final cell density of 1.0*10^6 to 4.0*10^6 cells/ml (depending on the metabolic turnover rate of the compound observed with primary human hepatocytes), a final test compound concentration of 1 μM, and a final DMSO concentration of 0.05% (v/v).
The cells were incubated for six hours (incubator, horizontal shaker) and samples were removed from the incubation after 0, 0.5, 1, 2, 4 or 6 hours, depending on the metabolic turnover rate. Samples were quenched with acetonitrile and pelleted by centrifugation. The supernatant was transferred to a 96-deepwell plate, evaporated under nitrogen, and resuspended prior to bioanalysis by liquid chromatography-high resolution mass spectrometry for identification of putative metabolites.
The contribution of hydrolysis was calculated based on the abundance of the respective deacetylated metabolite(s) of the compounds of the present invention relative to all metabolites observed in incubations with human hepatocytes.

The subject of a further data set is human hepatocytes. In words: Metabolic stability in human hepatocytes. The settings on record: human hepatocyte suspension, 1 μM; predicted hepatic clearance as percentage of hepatic blood flow. The class given is in vitro ADME. The method, then: The metabolic degradation of a test compound was assayed in a human hepatocyte suspension. After recovery from cryopreservation, human hepatocytes were diluted in Dulbecco's modified eagle medium (supplemented with 3.5 μg glucagon/500 mL, 2.5 mg insulin/500 mL, 3.75 mg hydrocortisone/500 mL, 5% human serum) to obtain a final cell density of 1.0×10^6 cells/mL or 4.0×10^6 cells/mL, depending on the metabolic turnover rate of the test compound.
Following a 30 minutes preincubation in a cell culture incubator (37° C., 10% CO2), test compound solution was spiked into the hepatocyte suspension, resulting in a final test compound concentration of 1 μM and a final DMSO concentration of 0.05% (v/v).
The cell suspension was incubated at 37° C. (cell culture incubator, horizontal shaker) and samples were removed from the incubation after 0, 0.5, 1, 2, 4 and 6 hours. Samples were quenched with acetonitrile (containing internal standard) and pelleted by centrifugation. The supernatant was transferred to a 96-deepwell plate, and prepared for analysis of decline of parent compound by HPLC-MS/MS.
The percentage of remaining test compound was calculated using the peak area ratio (test compound/internal standard) of each incubation time point relative to the time point 0 peak area ratio. The log-transformed data were plotted versus incubation time, and the absolute value of the slope obtained by linear regression analysis was used to estimate in vitro half-life (T1/2).
In vitro intrinsic clearance (CLint) was calculated from in vitro T1/2 and scaled to whole liver using a hepatocellularity of 120×10^6 cells/g liver, a human liver per body weight of 25.7 g liver/kg as well as in vitro incubation parameters, applying the following equation: CL_[…]_IN VIVO[mL/min/kg]=(CL_[…][μL/min/10^6 cells]×hepatocellularity[10^6 cells/g liver]×liver factor[g/kg body weight])/1000
Hepatic in vivo blood clearance (CL) was predicted according to the well-stirred liver model considering an average liver blood flow (QH) of 20.7 mL/min/kg: CL[mL/min/kg]=CL_[…]_IN VIVO[mL/min/kg]×hepatic blood flow[mL/min/kg]/(CL_[…]_IN VIVO[mL/min/kg]+hepatic blood flow[mL/min/kg])
Results were expressed as percentage of hepatic blood flow: QH[%]=CL[mL/min/kg]/hepatic blood flow[mL/min/kg])

The structures appear in SMILES notation.

The IC50 is the concentration that inhibits the measured activity by half. Read a low IC50 as inhibition by little substance.

Sequence of hERG channel (Q12809 whole entry): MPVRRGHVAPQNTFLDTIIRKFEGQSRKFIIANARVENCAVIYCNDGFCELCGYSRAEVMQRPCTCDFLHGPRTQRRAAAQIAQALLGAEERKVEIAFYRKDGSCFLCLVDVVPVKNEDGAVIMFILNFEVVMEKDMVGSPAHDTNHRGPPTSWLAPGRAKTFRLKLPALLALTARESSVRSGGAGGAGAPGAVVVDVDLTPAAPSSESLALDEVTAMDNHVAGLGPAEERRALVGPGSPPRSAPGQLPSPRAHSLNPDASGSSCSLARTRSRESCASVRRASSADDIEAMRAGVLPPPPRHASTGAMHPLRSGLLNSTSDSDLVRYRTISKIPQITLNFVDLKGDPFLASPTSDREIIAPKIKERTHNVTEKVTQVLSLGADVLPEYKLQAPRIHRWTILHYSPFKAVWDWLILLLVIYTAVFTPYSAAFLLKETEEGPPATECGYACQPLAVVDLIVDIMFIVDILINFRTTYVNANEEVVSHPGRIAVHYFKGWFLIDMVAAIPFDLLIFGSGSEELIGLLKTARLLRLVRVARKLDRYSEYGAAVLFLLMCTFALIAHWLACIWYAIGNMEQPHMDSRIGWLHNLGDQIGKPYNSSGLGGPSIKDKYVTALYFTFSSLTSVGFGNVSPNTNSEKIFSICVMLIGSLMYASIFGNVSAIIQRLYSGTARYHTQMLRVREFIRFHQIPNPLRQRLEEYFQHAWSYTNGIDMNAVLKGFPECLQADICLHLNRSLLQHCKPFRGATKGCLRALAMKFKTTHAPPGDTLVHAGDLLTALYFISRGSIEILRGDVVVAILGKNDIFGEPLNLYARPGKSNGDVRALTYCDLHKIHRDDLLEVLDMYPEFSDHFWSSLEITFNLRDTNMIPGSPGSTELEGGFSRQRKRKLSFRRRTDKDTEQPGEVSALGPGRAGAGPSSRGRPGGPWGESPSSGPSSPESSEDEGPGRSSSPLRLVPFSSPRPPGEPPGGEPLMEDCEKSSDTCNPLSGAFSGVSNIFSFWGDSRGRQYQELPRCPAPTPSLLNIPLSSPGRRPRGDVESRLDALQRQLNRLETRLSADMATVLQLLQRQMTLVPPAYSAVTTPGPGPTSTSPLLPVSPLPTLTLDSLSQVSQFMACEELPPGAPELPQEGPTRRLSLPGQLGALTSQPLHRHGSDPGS

Turning to `CC(=O)N1C[C@H](NC(=O)c2nccnc2N2CC(Oc3ccc(F)c(F)c3)C2)C(F)(F)C1` [Example 8b], the “Hu PPB” value in the data set on human plasma proteins was determined as 79.7 % bound. Moreover, the IC50 on hERG channel was > 10 µM. Further, in data set [1], the “% Parent of drug-related material” value is recorded as 84% and the “Contribution of amide hydrolysis to metabolism (incl. secondary metabolites)” value was 19%. Moreover, the “Human HepStab” value with human hepatocytes was 9.2 % QH.
For `CC(=O)N1C[C@H](NC(=O)c2nsnc2N2CC(Oc3ccc(F)c(F)c3)C2)C(F)(F)C1` [Example 13b] the same measures were 92.8 % bound, > 10 µM, 70%, 25% and <4.1 % QH.

(Values after US12115157B2, “3-phenoxyazetidin-1-yl-heteroaryl pyrrolidine derivatives and the use thereof as medicament” (Boehringer Ingelheim International GmbH, priority 2021, dated 2024).)
